Measured values: patent US10550143B2, “C,O-spiro aryl glycoside compounds, preparation therefor and use thereof” (SHANGHAI INSTITUTE OF MATERIA MEDICA, CHINESE ACADEMY OF …, priority 2015, dated 2020)
Marks after values point to notes of the source that are not given here.

Assays:
SD rats [1] = experiment: Acute administration of A28 at multiple doses, urinary glucose of SD rats; format: in vivo, rat; settings: within 24 h
Procedure: (1) 72 normal male SD rats were selected and randomly divided into 9 groups according to body weight and blood glucose, 8 in each group. […] After oral gavage, the rats were placed in rats metabolic cages, and urine was collected after 24 h, and the urine volume was recorded, then preserved under −20° C. Rats take food and water freely during the experimental period.
(2) Index Determination: Glucose levels in urine are measured by the glucose assay kit.

db/db mice [2] = experiment: Chronic administration, oral glucose tolerance in db/db mice; format: in vivo, mouse; settings: for Blood glucose AUC0-2 h / Blood glucose (mmol/L) 0 min / Blood glucose (mmol/L) 15 min / Blood glucose (mmol/L) 30 min / Blood glucose (mmol/L) 60 min / Blood glucose (mmol/L) 90 min / Blood glucose (mmol/L) 120 min / AUC0-2 h reduction rate (%): glucose tolerance, chronic administration; for AUC0-2 h reduction rate (%): vs vehicle
Procedure: (§1) Oral gavage administrated, daily dose volume was 10 mL/kg, administered once daily. Administration time was 9: 00-10:00 daily, and the administration period was 5 weeks.
The glucose tolerance of mice of normal control group, model control group, test substance group and positive control group were determined 3 weeks after administration of drug, oral administrated with 1.5 g/kg of glucose, and taken 2 μL of blood on the tail. 4 μL of normal saline was added to 96 well sharp bottom plate to dilute evenly, and then the blood glucose was measured. The blood glucose levels before the sugar administration and at 15, 30, 60, 90 and 120 min after the sugar administration were measured. The true blood glucose level was calculated and the area under the blood glucose curve within 120 min was calculated by the following formula: AUC0-2h (mmol/L·h)=(BG0+BG15)×0.25/2+(BG15+BG30)×0.25/2+(BG30+BG60)×0.5/2+(BG60+[…])×1.0/2 Note: BG0, BG15, BG30, BG60 and BG120 represent the blood glucose levels before the sugar administration, and at 15, 30, 60, and 120 min after sugar administration, respectively. Average hypoglycemic rate %=(solvent control group AUC0-2h−administration group AUC0-2h)/solvent control group AUC0-2h*100%

db/db mice [3] = experiment: Chronic administration, glycosylated hemoglobin level in db/db mice; format: in vivo, mouse; settings: for HbA1c Decline rate %: vs vehicle
Procedure: as §1
In the end of the above experiment, the orbital blood was taken from animals of each group and divided into two tubes, one was centrifuged to take blood cells for the determination of glycated hemoglobin content, the other tube was added with 25 μL EDTA in advance, centrifuged and the supernatant was taken to determine the indexes such as triglyceride (TG), total cholesterol (TC), total protein (TP), albumin, low density lipoprotein (LDL), high density lipoprotein (HDL), non-esterified fatty acid (NEFA) and so on.

db/db mice [4] = experiment: Chronic administration, glucose-stimulated insulin release in db/db mice; format: in vivo, mouse; settings: for Insulin AUC / Insulin (ng/ml) 0 min / Insulin (ng/ml) 15 min / Insulin (ng/ml) 30 min / Insulin (ng/ml) 60 min / Insulin (ng/ml) pre: glucose-stimulated insulin release, chronic administration
Procedure: as §1
The fourth week after administration, the mice were starved for 6 hours after morning administration and were orally administrated with glucose (1.5 g/kg), and blood was collected from the tail (10 μL EDTA+20 μL tail blood). Centrifuged and the supernatant was taken, stored at −20° C. for insulin test.

SD rats [5] = experiment: Acute administration of A28 at multiple doses, glucose tolerance of SD rats; format: in vivo, rat; settings: for AUC0-2 h / Average hypoglycemic rate % (0-2 h) / Blood glucose level 15 min / Blood glucose level 30 min / Blood glucose level 60 min / Blood glucose level 90 min / Blood glucose level 120 min / Blood glucose level 0: SD rats OGTT; for Blood glucose level 0: before sugar
Procedure: (1) 80 SD rats were selected and starved overnight, took water freely, then randomly divided into 10 groups according to body weight and random blood glucose, 8 rats in each group. […] 1 h after oral gavage, 3 g/kg of glucose was orally administered to each group except blank control group, and the blood glucose level was monitored before the sugar administration, and at 15, 30, 60, 90 and 120 minutes after the sugar administration.
Average hypoglycemic rate %=(AUC0-120 min of solvent control group−AUC0-120 min of administration group)/(AUC0-120 min of solvent control group−AUC0-120 min of blank control group)*100%

## CCc1ccc(Cc2cc3c(cc2Cl)CO[C@]32O[C@H](C)[C@@H](O)[C@H](O)[C@H]2O)s1 [Example A28, (1S,3′R,4′S,5′S,6′R)-6′-methyl-6-((5-ethylthienyl)-2-methyl)-5-chloro-3′,4′,5′,6′-tetrahydro-3H-spiro[isobenzofuran-1,2′-pyran]-3′,4′,5′-triol]
SD rats [1]; oral 0.3 mg/kg
  Total sugar excretion: 10.55 ± 10.05 mg/100 g
  Urine concentration: 8.70 ± 1.98 mmol/L
  Urine volume: 16.25 ± 1.50 mL
SD rats [1]; oral 1 mg/kg
  Total sugar excretion: 149.08 ± 0.00 mg/100 g
  Urine concentration: 105.56 ± 0.00 mmol/L
  Urine volume: 19.25 ± 0.00 mL
SD rats [1]; oral 3 mg/kg
  Total sugar excretion: 441.27 ± 50.75 mg/100 g
  Urine concentration: 257.69 ± 32.96 mmol/L
  Urine volume: 25.00 ± 2.06 mL
SD rats [1]; oral 10 mg/kg
  Total sugar excretion: 1028.20 ± 83.93 mg/100 g
  Urine concentration: 359.48 ± 29.43 mmol/L
  Urine volume: 39.75 ± 1.57 mL
SD rats [1]; single oral 0.3, 1, 3 and 10 mg/kg
  urine glucose excretion: significantly promoted in a dose-dependent manner
db/db mice [2]; after 3 weeks of chronic administration
  improvement of oral glucose tolerance compared with Dapagliflozin: stronger than that of Dapagliflozin of the same dose
db/db mice [2]; dose 0.3 mg/kg
  Blood glucose AUC0-2 h: 6.3 ± 1.3
  Blood glucose (mmol/L) 0 min: 12.3 ± 0.9 mmol/L
  Blood glucose (mmol/L) 15 min: 22.7 ± 1.4 mmol/L
  Blood glucose (mmol/L) 30 min: 21.4 ± 1.1 mmol/L
  Blood glucose (mmol/L) 60 min: 13.5 ± 0.7 mmol/L
  Blood glucose (mmol/L) 90 min: 12.5 ± 0.9* * mmol/L
  Blood glucose (mmol/L) 120 min: 10.9 ± 1.0* * mmol/L
  AUC0-2 h reduction rate (%): 57.2%
db/db mice [2]; dose 1 mg/kg
  Blood glucose AUC0-2 h: 4.7 ± 1.9
  Blood glucose (mmol/L) 0 min: 10.4 ± 1.0 mmol/L
  Blood glucose (mmol/L) 15 min: 16.9 ± 0.8 mmol/L
  Blood glucose (mmol/L) 30 min: 18.7 ± 0.7 mmol/L
  Blood glucose (mmol/L) 60 min: 11.1 ± 0.5 mmol/L
  Blood glucose (mmol/L) 90 min: 10.4 ± 0.6* * mmol/L
  Blood glucose (mmol/L) 120 min: 8.7 ± 0.5 mmol/L
  AUC0-2 h reduction rate (%): 68.2%
db/db mice [2]; dose 3 mg/kg
  Blood glucose AUC0-2 h: 6.1 ± 0.9
  Blood glucose (mmol/L) 0 min: 8.1 ± 1.0 mmol/L
  Blood glucose (mmol/L) 15 min: 16.1 ± 2.4 mmol/L
  Blood glucose (mmol/L) 30 min: 17.4 ± 2.6 mmol/L
  Blood glucose (mmol/L) 60 min: 9.1 ± 1.0 mmol/L
  Blood glucose (mmol/L) 90 min: 8.9 ± 0.8 mmol/L
  Blood glucose (mmol/L) 120 min: 6.9 ± 0.8 mmol/L
  AUC0-2 h reduction rate (%): 58.9%
db/db mice [2]; dose 10 mg/kg
  Blood glucose AUC0-2 h: 2.3 ± 0.8
  Blood glucose (mmol/L) 0 min: 7.2 ± 0.6 mmol/L
  Blood glucose (mmol/L) 15 min: 11.3 ± 0.6 mmol/L
  Blood glucose (mmol/L) 30 min: 12.3 ± 1.0 mmol/L
  Blood glucose (mmol/L) 60 min: 7.1 ± 0.5 mmol/L
  Blood glucose (mmol/L) 90 min: 6.5 ± 0.3 mmol/L
  Blood glucose (mmol/L) 120 min: 6.2 ± 0.5 mmol/L
  AUC0-2 h reduction rate (%): 84.6%
db/db mice [3]; dose 0.3 mg/kg
  HbA1c (%): 5.83 ± 0.36 %
  HbA1c Decline rate %: 23.2%
db/db mice [3]; dose 1 mg/kg
  HbA1c (%): 6.02 ± 0.30 %
  HbA1c Decline rate %: 20.7%
db/db mice [3]; dose 3 mg/kg
  HbA1c (%): 4.95 ± 0.37 %
  HbA1c Decline rate %: 34.8%
db/db mice [3]; dose 10 mg/kg
  HbA1c (%): 4.50 ± 0.27 %
  HbA1c Decline rate %: 40.7%
db/db mice [4]; four weeks chronic administration, 0.3 mg/kg and 1 mg/kg
  glucose-stimulated insulin release: significantly improved glucose-stimulated insulin release in db/db mice in a dose-dependent manner
db/db mice [4]; dose 0.3 mg/kg
  Insulin AUC: 43.85 ± 5.69
  Insulin (ng/ml) 0 min: 21.58 ± 2.48 ng/mL
  Insulin (ng/ml) 15 min: 51.67 ± 7.86 ng/mL
  Insulin (ng/ml) 30 min: 46.22 ± 8.10 ng/mL
  Insulin (ng/ml) 60 min: 43.61 ± 4.85 ng/mL
  Insulin (ng/ml) pre: 7.68 ± 0.79 ng/mL
db/db mice [4]; dose 1 mg/kg
  Insulin AUC: 35.92 ± 5.00
  Insulin (ng/ml) 0 min: 17.47 ± 2.20 ng/mL
  Insulin (ng/ml) 15 min: 41.94 ± 8.42 ng/mL
  Insulin (ng/ml) 30 min: 40.07 ± 7.01 ng/mL
  Insulin (ng/ml) 60 min: 32.89 ± 3.69 ng/mL
  Insulin (ng/ml) pre: 7.86 ± 0.94 ng/mL
db/db mice [4]; dose 3 mg/kg
  Insulin AUC: 32.49 ± 5.92
  Insulin (ng/ml) 0 min: 17.57 ± 4.54 ng/mL
  Insulin (ng/ml) 15 min: 38.42 ± 8.58 ng/mL
  Insulin (ng/ml) 30 min: 36.06 ± 8.77 ng/mL
  Insulin (ng/ml) 60 min: 28.68 ± 8.81 ng/mL
  Insulin (ng/ml) pre: 7.92 ± 1.60 ng/mL
db/db mice [4]; dose 10 mg/kg
  Insulin AUC: 17.20 ± 1.59
  Insulin (ng/ml) 0 min: 9.02 ± 0.59 ng/mL
  Insulin (ng/ml) 15 min: 16.70 ± 2.42 ng/mL
  Insulin (ng/ml) 30 min: 13.42 ± 1.94 ng/mL
  Insulin (ng/ml) 60 min: 27.45 ± 4.43 ng/mL
  Insulin (ng/ml) pre: 7.45 ± 1.00 ng/mL
SD rats [5]; oral 0.3 mg/kg
  AUC0-2 h: 19.1 ± 1.77 mmol·h/L
  Average hypoglycemic rate % (0-2 h): 10.3%
  Blood glucose level 15 min: 7.6 ± 0.8 mmol/L
  Blood glucose level 30 min: 10.1 ± 1.6 mmol/L
  Blood glucose level 60 min: 11.1 ± 1.3 mmol/L
  Blood glucose level 90 min: 10.5 ± 0.8 mmol/L
  Blood glucose level 120 min: 8.1 ± 1.3 mmol/L
  Blood glucose level 0: 5.0 ± 0.7 mmol/L
SD rats [5]; oral 1 mg/kg
  AUC0-2 h: 15.6 ± 0.9 mmol·h/L
  Average hypoglycemic rate % (0-2 h): 45.0%
  Blood glucose level 15 min: 5.4 ± 0.9 mmol/L
  Blood glucose level 30 min: 6.5 ± 1.1 mmol/L
  Blood glucose level 60 min: 8.4 ± 0.6 mmol/L
  Blood glucose level 90 min: 9.6 ± 1.2 mmol/L
  Blood glucose level 120 min: 9.0 ± 1.3 mmol/L
  Blood glucose level 0: 4.4 ± 0.3 mmol/L
SD rats [5]; oral 3 mg/kg
  AUC0-2 h: 11.6 ± 0.9 mmol·h/L
  Average hypoglycemic rate % (0-2 h): 83.7%
  Blood glucose level 15 min: 3.6 ± 0.5 mmol/L
  Blood glucose level 30 min: 4.3 ± 0.3 mmol/L
  Blood glucose level 60 min: 5.6 ± 0.7 mmol/L
  Blood glucose level 90 min: 7.4 ± 0.6 mmol/L
  Blood glucose level 120 min: 8.4 ± 1.6 mmol/L
  Blood glucose level 0: 3.7 ± 0.4 mmol/L
SD rats [5]; oral 10 mg/kg
  AUC0-2 h: 7.6 ± 0.9 mmol·h/L
  Average hypoglycemic rate % (0-2 h): 122.4%
  Blood glucose level 15 min: 3.0 ± 0.4 mmol/L
  Blood glucose level 30 min: 3.4 ± 0.4 mmol/L
  Blood glucose level 60 min: 4.3 ± 1.8 mmol/L
  Blood glucose level 90 min: 4.2 ± 0.4 mmol/L
  Blood glucose level 120 min: 3.7 ± 0.9 mmol/L
  Blood glucose level 0: 3.1 ± 0.4 mmol/L
SD rats [5]; SD rats, single oral dose
  2 h hypoglycemic effect compared with Dapagliflozin: equivalent 2 h hypoglycemic effect to positive Dapagliflozin
